{"source": "paper PMC6104039", "about": "(Nature Communications, 2018)", "key": {"[1]": {"test_system": "C57BL6/J mice", "test": "Oral glucose tolerance test with labelled glucose and fasting insulin", "type": "in vivo", "details": "5 mg/kg, chow or HFD", "experimental": "Mice were fasted for 6 h, then received 50 mg stable isotope-labeled glucose (6,6-^2H glucose, Sigma Aldrich) by oral gavage. Blood glucose was measured with a glucose meter (Accu-Check, Roche, NSW, Australia) prior to and at 15, 30, 45, 60 and 90 min following gavage. Additional blood (~10 μL) was collected from the tail tip prior to and at 15 and 60 min following glucose gavage. These samples were used to perform mass isotopologue analysis of plasma glucose via gas chromatography–mass spectrometry (GC–MS)[70]. Specifically, plasma glucose was separated into the labelled glucose load and the endogenous (liver/kidney-derived) unlabelled glucose to permit differentiation of glucose disposal from endogenous glucose production (Supplementary Figure 10). Fasting blood insulin was measured using an Ultrasensitive Mouse Insulin ELISA Kit (Crystal Chem, Illinois, USA). […]\nendogenous glucose synthesis. Plasma concentration of (a) labelled glucose resulting from an oral glucose load, and (b) endogenous glucose, during the oral glucose tolerance test. Mice"}, "[2]": {"test_system": "soleus muscles", "test": "14C-palmitate oxidation and incorporation into TAG in isolated soleus muscles of treated mice", "type": "in vivo", "experimental": "After a 30 min pre-incubation, muscles were transferred into vials containing 0.5 mCi/mL of [1-^14C]-palmitate in modified Krebs-Henseleit buffer for another 1 h. The reaction was stopped by removal of the muscles and addition of 1 M perchloric acid to the reaction mixture. ^14C-labelled CO2 was quantified as described above. The muscles were blotted dry and snap frozen in liquid nitrogen for subsequent lipid extraction and TLC. Muscles were homogenized using a Polytron (Kinematica, Littau-Lucerne, Switzerland) in 1.5 mL 2:1 chloroform-methanol (v/v). […] The upper aqueous phase was used to quantify ASM, and the lower organic phase was collected and dried under stream of N2, then reconstituted in hexane and spotted on a Silica Gel 60 F254 TLC plate. The TLC plate was developed in hexane/diethyl ether/glacial acetic acid (85:15:1), then air dried. TAG bands were visualised using iodine vapour staining, using an external standard to mark their position, then scraped into vials and quantified by liquid scintillation counting."}}, "data": [{"smiles": "C[C@@](N)(CO)CCc1ccc(OCc2ccc(Cl)c(Cl)c2)cc1", "note": "[P053, (S)-2-amino-4-(4-(3,4-dichlorobenzyloxy)phenyl)-2-methylbutan-1-ol]", "values": [{"measurement": "fasting insulin and glucose tolerance", "setting": "[1]", "value": "no impact"}, {"measurement": "iAUC for the labelled glucose load", "setting": "[1]", "value": "no effect"}, {"measurement": "oxidation of 14C-palmitate in soleus muscles", "setting": "[2]; 2 weeks, 5 mg/kg", "value": "significantly increased"}, {"measurement": "incorporation of 14C-palmitate into TAG", "setting": "[2]; 2 weeks, 5 mg/kg, 1 h incubation", "value": "unchanged"}, {"measurement": "increase of the rate of palmitate oxidation in muscle", "setting": "[2]; P053 treatment", "value": 23, "unit": "%"}]}]}
